Source: patent US20100003191A1, “AURONE DERIVATIVE-CONTAINING COMPOSITION FOR DIAGNOSIS” (NAGASAKI UNIVERSITY, priority 2006, published 2010)

Experiments:
Aβ(1-42) aggregate = biological target: T1, Aβ(1-42) aggregate (Homo sapiens, UniProt P05067); assay: In vitro binding experiment of [125I]-labeled aurone derivatives using Aβ(1-42) aggregates; conditions: [125I]-labeled compounds, Ab(1-42) aggregates; for intensity of the binding property to Ab aggregates (order): radioactivity remaining on filter, FIG. 4
T1 construct: Amyloid (3 protein (Human, 1-42) [TFA form] was purchased from Peptide Institute, Inc); purchased Peptide Institute, Inc
T1 sequence (P05067 672-713 limits assumed): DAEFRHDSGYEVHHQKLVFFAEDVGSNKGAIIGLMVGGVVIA
Experimental: Aβ aggregates were prepared by dissolving in a buffer containing 10 mM sodium phosphate and 1 mM EDTA (pH 7.4) at a concentration of 0.5 mg/mL and incubating at 37° C. for 42 h. The binding experiment was performed using 12×75 mm borosilicate glass tubes. [^125I]IMPY used for comparison was prepared according to the method described previously (Zhuang Z P, Kung M P, Wilson A, Lee C W, Plossi K, Hou C, Holzman D M, Kung H F. Structure-activity relationship of imidazo[1,2-a]pyridines as ligands for detecting β-amyloid plaques in the brain. J. Med. Chem. 2003, 46(2): 237-43). 900 μL of 10% ethanol solution, 50 μL of [^125I]-labeled aurone derivative with various concentrations (in 10% aqueous ethanol) or 50 μL of [^125I]IMPY, and 50 μL (29 nM) of an Aβ(1-42) aggregate solution were mixed, and the mixture was allowed to stand at room temperature for 3 h. Aβ3 aggregate-bound aurone derivative and nonbound aurone derivative were separated with a Brandel M-24R cell harvester using Whatman GF/B filters. The radioactivities of substances remaining on the filter used for filtration were measured with a γ counter.
FIGS. 4 and 5 show the results of experiments in which aurone derivatives were reacted in the presence and absence of Ab aggregates; the reaction mixture was filtered with a cell harvester; and the remaining radioactivity on the filter was measured. […] The intensity of the binding property increased in the following order: [^125I] Compound 7>[^125I] Compound 12=[^125I] IMPY>[^125I] Compound 14=[^125I] Compound 17>[^125I] Compound 20 (FIG. 4). The binding property to Ab aggregates of those compounds with —NH2, OMe- and OH group in their side chains are lower than the binding property of [^125] IMPY. On the other hand, those compounds with NHMe- and NMe2 group show equal or higher binding property to Ab aggregates compared to the binding property of [^125I] IMPY. […] Among all, the binding of Compound 7 to Ab aggregates was equal or more than the binding of [^125I] IMPY which is clinically tested at present. Therefore, it has become clear that this compound satisfies a critical requirement as an imaging probe for amyloid β.

Ab(1-42) aggregates = biological target: T2, Ab(1-42) aggregates (Homo sapiens, UniProt P05067); assay: Binding inhibition experiment using Ab(1-42) aggregates, inhibition constants (Ki), radioligand [125I](Z)-2-(4-aminobenzylidene)-5-iodobenzofuran-3(2H)-one (Table 14); conditions: Aβ42 aggregates
T2 construct: Ab(1-42) was dissolved in 10 mM phosphate buffer containing 1 mM EDTA (pH 7.4)
T2 sequence (P05067 672-713 limits assumed): as above
Experimental: Ab(1-42) was dissolved in 10 mM phosphate buffer containing 1 mM EDTA (pH 7.4) to give a concentration of 0.25 mg/mL, and the mixture was incubated at 37° C. for 42 h to thereby prepare Ab(1-42) aggregates.
[…] of 10% EtOH solution, […] of a solution of [^125I](Z)-2-(4-aminobenzylidene)-5-iodobenzofuran-3(2H)-one in 10% ethanol, and […] of a sample solution at various concentrations ([…]) were mixed. Finally, […] of Ab(1-42) aggregate solution was added thereto, and the mixture was allowed to stand at room temperature for 3 h. Ab(1-42) aggregate-bound compounds and nonbound compounds were separated with a Brandel M-24R cell harvester using a Whatman GF/B filter. Radioactivities remaining on the filter were measured with a γ-counter, and inhibition curves were created using Graph Pad Prism 4.0 to calculate inhibition constants (Ki values).
In order to calculate inhibition constants (Ki values) for various aurone derivatives synthesized, binding inhibition experiments were performed using [^125I](Z)-2-(4-aminobenzylidene)-5-iodobenzofuran-3(2H)-one as a radioactive ligand. […] Thus, aurone derivatives have shown a high binding property to amyloid aggregates. No difference in binding property resulting from the length of introduced ethyleneoxy chains was observed.

[1] = tested on: senile plaques on brain sections from Tg2576 mice; assay: Fluorescence staining and immunostaining on brain sections from transgenic mice; assay type: binding; conditions: Tg2576 mouse brain sections, FIG. 9
Experimental: As Alzheimer's disease model mouse, Tg2576 mice (20-month-old) were used. Brain tissues were removed and frozen in carboxymethyl cellulose (4%). Then, a series of sections 10 μm thick were prepared therefrom. The thus prepared sections were reacted with a ligand (a solution of Compound 26 and thioflavin in 50% EtOH) for 3 min. Then, the sections were washed with 50% EtOH (1 min×twice) and observed under a fluorescence microscope. Further, using adjacent sections, immunostaining was performed by conventional methods with anti-amyloid (3(1-42) antibody.
Fluorescence staining was performed on brain sections from Alzheimer's disease model mouse (Tg2576) utilizing the fluorescence property of Compound 26 (FIG. 9).

[2] = tested on: senile plaque amyloid on hippocampal sections from Alzheimer's disease patients; assay: In vitro autoradiography and immunostaining on brain sections from Alzheimer's disease patients (Example 2); assay type: binding, human; conditions: AD patient brain sections, FIG. 10
Experimental: Hippocampal sections (5 μm thick) from Altzheimer's disease patients were dewaxed by washing with xylene ((5 min×2) and with 100% EtOH, 100% EtOH, 95% EtOH, 85% EtOH and 70% EtOH (1 min×1 for each). After air-drying, the sections were reacted with a ligand (40% EtOH solution) for 1 h. Then, the sections were washed with saturated aqueous lithium carbonate solution in 40% EtOH (2 min×2), with 40% EtOH (2 min×2) and with water (30 sec×1), and immobilized on imaging plates for 24 h. Subsequently, the sections were analyzed with BAS2500. Further, using adjacent sections, immunostaining was performed by conventional methods with anti-amyloid β(1-42) antibody.
Autoradiography was performed on brain sections from Altzheimer's disease patients with [^125I]26 (FIG. 10).

[3] = male, ddY, mouse, in vivo, 2 min
Experimental: Animals were decapitated at 2, 10, 30 or 60 min after the injection, and the blood was collected. Then, major organs were removed, and weights and radioactivities thereof were measured.
In vivo radioactivity distribution experiments of ^125I-labeled aurone derivatives were performed using 5-week-old normal mice.

SMILES	intensity of the binding property to Ab aggregates (order) (Aβ(1-42) aggregate)	Ki (Ab(1-42) aggregates)	migration of radioactivity to the brain [3]	also measured
CN(C)c1ccc(/C=C2\Oc3ccc(I)cc3C2=O)cc1 [Compound 7, 5-iodo-4′-dimethylaminoaurone]	[^125I] Compound 7>[^125I] Compound 12			binding property to Ab aggregates compared with [125I]IMPY (Aβ(1-42) aggregate): equal or more than the binding of [^125I] IMPY
CNc1ccc(/C=C2\Oc3ccc(I)cc3C2=O)cc1 [Compound 12, 5-iodo-4′-methylaminoaurone]	[^125I] Compound 12=[^125I] IMPY			
Nc1ccc(/C=C2\Oc3ccc(I)cc3C2=O)cc1 [Compound 14, 5-iodo-4′-aminoauron]	[^125I] Compound 14=[^125I] Compound 17			
COc1ccc(/C=C2\Oc3ccc(I)cc3C2=O)cc1 [Compound 17, 5-iodo-4′-methoxyaurone]	[^125I] Compound 17>[^125I] Compound 20			
O=C1/C(=C/c2ccc(O)cc2)Oc2ccc(I)cc21 [Compound 20, 5-iodo-4′-hydroxyaurone]	>[^125I] Compound 20			
O=C1/C(=C/c2ccc(OCCO)cc2)Oc2ccc(I)cc21 [Compound 26, (Z)-2-(4-(2-hydroxyethoxy)benzylidene)-5-iodobenzofuran-3(2H)-one]		1.05 ± 0.06 nM	2.4-4.5 % ID/g	fluorescence image on brain sections [1]: consistent with the fluorescence image of thioflavin S on adjacent section and the immunostaining image of anti-amyloid antibody on adjacent section; radioactivity in autoradiography vs immunostaining [2]: observed at the positive site of immunostaining with anti-amyloid antibody
O=C1/C(=C/c2ccc(OCCOCCO)cc2)Oc2ccc(I)cc21 [Compound 27, (Z)-2-(4-(2-(2-hydroxyethoxy)ethoxy)benzylidene)-5-iodobenzofuran-3(2H)-one]		3.36 ± 0.29 nM	2.4-4.5 % ID/g	
O=C1/C(=C/c2ccc(OCCOCCOCCO)cc2)Oc2ccc(I)cc21 [Compound 28, (Z)-2-(4-(2-(2-(2-hydroxyethoxy)ethoxy)ethoxy)benzylidene)-5-iodobenzofuran-3(2H)-one]		2.56 ± 0.31 nM	2.4-4.5 % ID/g	
CN(C)c1ccc(-c2cn3cc([125I])ccc3n2)cc1 [[^125I] IMPY, reference compound]	[^125I] IMPY>[^125I] Compound 14			
